Laboratory results as given in US20230158179A1, “RADIOPHARMACEUTICAL CONJUGATE COMPOSITIONS AND USES THEREOF” (RayzeBio, Inc., priority 2020, published 2023).
Read-outs that look alike come from different tables or passages of the source. Values belong to the compound of their own block, whether it stands above or below them. Numbered stars: 1 amine (or outer) side, 2 acyl side, 3 side chain; on linkers, the order of the positions; unused ones are H or OH. Bridge positions count the residues as written; N and C are the ends. Square brackets hold non-standard residues; d marks the D form. Peptide text beside a SMILES is read from it. Trp(6-Cl) = N[C@@H](Cc1c[nH]c2cc(Cl)ccc12)C(=O)O; Phe(3-Ph) = N[C@@H](Cc1cccc(-c2ccccc2)c1)C(=O)O; Bip = N[C@@H](Cc1ccc(-c2ccccc2)cc1)C(=O)O; Phe(3-Cl) = N[C@@H](Cc1cccc(Cl)c1)C(=O)O; γGlu = O=C(O)[C@H](CCC(=O)[*:2])N[*:1]; NMeY = CN[C@@H](Cc1ccc(O)cc1)C(=O)O; NMeF = CN[C@@H](Cc1ccccc1)C(=O)O; hPhe = N[C@@H](CCc1ccccc1)C(=O)O; 3Pal = N[C@@H](Cc1cccnc1)C(=O)O; Ahp(2) = CCCCC[C@H](N)C(=O)O; Cba = N[C@@H](CC1CCC1)C(=O)O; Chg = N[C@H](C(=O)O)C1CCCCC1; NMeA = CN[C@@H](C)C(=O)O; βAla = NCCC(=O)O; Sar = CNCC(=O)O

What was measured:
[1] = target: T1, FOLR1 (Homo sapiens, UniProt P15328); assay: Peptide binding to FOLR1 (SPR, Biacore 8K); conditions: FOLR1-Fc-Avi immobilized, 25° C., Langmuir 1:1 binding model
T1 construct: purchased AcroBiosystems F01-H82F9
Procedure: For analysis of peptide binding, a Biacore 8K instrument was used utilizing either a SA chip or a CAP chip. FOLR1-Fc-Avi (AcroBiosystems, F01-H82F9) was immobilized on the chip using streptavidin-biotin chemistry at 25° C. in PBS-P+ buffer (20 mM phosphate, 2.7 mM KCl, 137 mM NaCl, 0.05% Tween-20, pH 7.4) to a level of 500-2500 RU (dependent on the analyte molecular weight). A dilution series of peptides was prepared in this buffer with a final DMSO concentration of 1% with a top peptide concentration at 50 or 100 nM and 8 further 2-fold dilutions. The SPR analysis was run at 25° C. at a flow rate of 100 μL/min in PBS-P+ with 1% DMSO running buffer and with a 120 second association and 10,000 second dissociation using single cycle kinetics methodology. All data was analyzed using Biacore Insight Evaluation Software version 3.) Data was fitted using a Langmuir 1:1 binding model.
Kd values of peptides of the present disclosure are given in Table 8 below, where Kd 0 nM<A≤10 nM.

[2] = target: T2, PSMA (Homo sapiens, UniProt Q04609); assay: Peptide binding to PSMA (SPR, Biacore 8K); conditions: His-Avi-PSMA immobilized, 25° C., Langmuir 1:1 binding model
T2 construct: purchased AcroBiosystems PSA-H82Qb
Procedure: For analysis of peptide binding, a Biacore 8K instrument was used utilizing a SA chip. His-Avi-PSMA (AcroBiosystems, PSA-H82Qb) was immobilized on the chip using streptavidin-biotin chemistry at 25° C. in HBS-P+ buffer (10 mM HEPES, 150 mM NaCl, 0.05% Tween-20, pH 7.4) to a level of 800-2200 RU (dependent on the analyte molecular weight). A dilution series of peptides was prepared in this buffer with a final DMSO concentration of 1% with a top peptide concentration between 10-100 nM and 8 further 2-fold dilutions. The SPR analysis was run at 25° C. at a flow rate of 100 μL/min in HBS-P+ with 1% DMSO running buffer and with a 120 second association and 10,000 second dissociation using single cycle kinetics methodology. All data was analyzed using Biacore Insight Evaluation Software version 3. Data was fitted using a Langmuir 1:1 binding model.

[3] = target: T3, Human Serum Albumin (HSA) (Homo sapiens, UniProt P02768); assay: HSA-HPLC plasma protein binding (immobilized human serum albumin-HPLC); type: in vitro ADME; conditions: HSA-HPLC method, room temperature, estimated from gradient retention times, read-out: % Bound to HSA at r.t.
T3 construct: purchased ChiralPAK HSA HPLC column, 50×4 mm
Text: • HSA-HPLC method (measurement of drug protein binding by immobilized human serum albumin-HPLC). A 13-minute HPLC (Thermo Vanquish Horizon with Diode Array Detector) gradient method was used to determine the HSA (Human Serum Albumin) binding of novel compounds using a chemically bonded protein stationary phase (ChiralPAK HSA HPLC column, 50×4 mm). The HSA binding values were derived from the gradient retention times that were converted to the logarithm of the equilibrium constant using data from a calibration set of molecules. The % bound to plasma values for the calibrator compounds were converted to the linear free energy values using the following equation: LogK=log[% PPB/(101−% PPB)]. The logarithmic value of the gradient retention times from the experiment were plotted against the linearized values of the percent bound to plasma. The slope and the intercept were used to convert the retention times to linear free energy values (LogK), from which the estimated % protein binding was calculated using the following equation: % Binding=[(101·10^LogK)/(1+10^LogK)]. Aqueous mobile phase (A) was 50 mM ammonium acetate solution, ph7.4 and the organic mobile phase (B) was 2-propanol. […] Chromatograms were recorded at 280 nm by a diode array UV absorption detector. […]

[4] = system: PSMA expressing cells (LnCap); assay: FACS binding to PSMA expressing cells; type: cell-based; conditions: biotinylated compounds
Procedure: LnCap cells, 2e^6 cells/ml
SYTOX viability dye • (1) Washed cells with PBS once. • (2) Incubated cells with 5 ml of Accutase at 37 degrees for 2-5 minutes. Gently rocking the flask until the layer of cells pilling off • (3) Added 15 ml of PBS into flask and transferred to a 50 ml conical tube • (4) Spun down 1600 rpm 3 minutes • (5) Resuspended in 2 ml of PBS, and counted cells • (6) Adjusted cell density to 2e6 cells/ml with PBS and then added 100 uL/well to the plate and mixed well • (7) Spun down 1600 rpm 3 minutes • (8) Add 100 uL of compound/well respectively. Prepared serial dilute compound in PBS, 1 uM to 0.01 nM, 1:3 dilution, 10 point curve • (9) Incubated for 50 minutes total • (10) Washed wells with 150 uL PBS and spun down 1600 rpm 3 min and dumped • (11) Added SA-A647, 1:1000 dilution in FACS buffer, 100 ul/well to respective wells • (12) Incubated for 50 min on ice • (13) Washed with 200 uL PBS spun 1600 rpm 3 min dump • (14) Resuspended in 100 uL SYTOX, 1:1000 dilution in FACS buffer • (15) Acquired

[5] = target: T4, Trop-2 (Homo sapiens, UniProt P09758); assay: Conjugate binding to Trop-2 (BLI, GatorPrime); conditions: biotinylated peptides immobilized, His-tagged Trop-2, 30° C., Langmuir 1:1 binding model
T4 construct: purchased AcroBiosystems TR2-H5223
T4 sequence (P09758 27-323): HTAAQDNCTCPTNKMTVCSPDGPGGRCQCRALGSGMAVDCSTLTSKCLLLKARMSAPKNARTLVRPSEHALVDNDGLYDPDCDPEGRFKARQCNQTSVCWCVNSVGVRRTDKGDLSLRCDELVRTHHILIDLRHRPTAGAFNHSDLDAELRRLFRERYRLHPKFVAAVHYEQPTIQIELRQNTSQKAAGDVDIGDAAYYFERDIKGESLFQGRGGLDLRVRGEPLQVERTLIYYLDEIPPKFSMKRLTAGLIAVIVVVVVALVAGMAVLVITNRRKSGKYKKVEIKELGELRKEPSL
Procedure: For analysis of peptide binding, a GatorPrime instrument was used utilizing SMAP probes. Biotinylated peptides of 1 μM were immobilized on the sensor using streptavidin-biotin chemistry at 25° C. in HBS-P+ buffer (10 mM HEPES, 150 mM NaCl, 0.05% Tween-20, pH 7.4). A dilution series of His-tagged Trop-2 (AcroBiosystems, TR2-H5223) was prepared in this buffer with a top peptide concentration at 100 nM and 6 further 3-fold dilutions. The BLI analysis was run at 30° C. with a 120 second association and 120 second dissociation. All data was analyzed using GatorLaunch software. Data was fitted using a Langmuir 1:1 binding model.

T1 sequence (P15328 25-234): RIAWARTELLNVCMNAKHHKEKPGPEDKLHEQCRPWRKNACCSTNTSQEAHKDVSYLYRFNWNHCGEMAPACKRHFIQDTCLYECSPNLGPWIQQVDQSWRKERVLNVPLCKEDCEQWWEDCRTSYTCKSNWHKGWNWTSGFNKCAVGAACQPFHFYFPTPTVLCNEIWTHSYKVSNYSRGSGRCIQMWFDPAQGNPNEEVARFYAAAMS
T3 sequence (P02768 25-609): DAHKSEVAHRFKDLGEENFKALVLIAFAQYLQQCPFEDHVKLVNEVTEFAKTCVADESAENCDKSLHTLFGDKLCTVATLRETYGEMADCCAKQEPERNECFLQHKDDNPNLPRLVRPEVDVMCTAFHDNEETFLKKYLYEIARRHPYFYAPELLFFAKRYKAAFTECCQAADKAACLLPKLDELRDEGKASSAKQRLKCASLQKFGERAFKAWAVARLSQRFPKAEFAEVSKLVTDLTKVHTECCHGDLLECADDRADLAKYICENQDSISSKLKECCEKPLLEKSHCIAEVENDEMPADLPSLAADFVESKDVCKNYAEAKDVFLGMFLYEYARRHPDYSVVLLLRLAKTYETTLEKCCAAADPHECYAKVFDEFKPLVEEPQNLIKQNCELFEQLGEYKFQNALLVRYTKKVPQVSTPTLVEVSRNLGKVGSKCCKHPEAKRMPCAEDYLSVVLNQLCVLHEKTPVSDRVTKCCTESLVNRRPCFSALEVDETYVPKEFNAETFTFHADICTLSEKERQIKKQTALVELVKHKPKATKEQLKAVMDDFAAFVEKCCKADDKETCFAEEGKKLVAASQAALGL
T2 sequence (Q04609 whole entry): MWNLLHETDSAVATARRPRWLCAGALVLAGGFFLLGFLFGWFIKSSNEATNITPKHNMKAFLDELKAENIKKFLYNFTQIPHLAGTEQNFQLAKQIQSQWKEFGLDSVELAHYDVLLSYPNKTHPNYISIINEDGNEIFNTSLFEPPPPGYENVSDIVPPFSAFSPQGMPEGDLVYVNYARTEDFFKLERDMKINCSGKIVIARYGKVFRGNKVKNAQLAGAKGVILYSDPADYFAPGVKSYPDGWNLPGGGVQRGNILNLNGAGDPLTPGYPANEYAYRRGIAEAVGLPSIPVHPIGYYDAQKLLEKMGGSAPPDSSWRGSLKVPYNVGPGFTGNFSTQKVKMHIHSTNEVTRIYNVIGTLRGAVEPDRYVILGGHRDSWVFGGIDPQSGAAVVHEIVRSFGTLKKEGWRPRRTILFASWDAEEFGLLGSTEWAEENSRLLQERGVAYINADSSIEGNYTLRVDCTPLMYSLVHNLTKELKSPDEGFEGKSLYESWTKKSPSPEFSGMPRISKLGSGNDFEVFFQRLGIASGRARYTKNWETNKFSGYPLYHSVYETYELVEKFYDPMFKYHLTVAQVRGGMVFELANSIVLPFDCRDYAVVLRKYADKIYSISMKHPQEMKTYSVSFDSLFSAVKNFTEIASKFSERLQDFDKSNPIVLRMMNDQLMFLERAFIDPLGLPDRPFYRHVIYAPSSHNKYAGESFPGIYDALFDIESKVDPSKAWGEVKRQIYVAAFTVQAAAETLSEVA

Compound: C[C@@H](O)[C@@H]1NC(=O)[C@H](CC(=O)O)NC(=O)[C@H](Cc2ccc(O)cc2)NC(=O)[C@H](CC(=O)O)NC(=O)[C@H](Cc2ccccc2)N(C)C(=O)[C@H](C2CCCCC2)NC(=O)[C@H](CCCNC(=N)N)NC(=O)[C@H](CC(=O)O)NC(=O)CSC[C@@H](C(N)=O)NC(=O)[C@H](Cc2ccc(O)cc2)NC(=O)[C@H](Cc2c[nH]c3ccccc23)NC(=O)[C@H](Cc2ccc(O)cc2)N(C)C(=O)[C@H](Cc2ccc(O)cc2)N(C)C1=O [Compound P-12] ({CH2CO}-DR[Chg][NMeF]DYDT[NMeY][NMeY]WYC-NH2; thioether N-13)
Kd [1]: < 10 nM

Compound: CC(C)[C@@H]1NC(=O)[C@H](CC(=O)O)NC(=O)[C@H](Cc2cccc(-c3ccccc3)c2)NC(=O)[C@H](Cc2c[nH]c3ccccc23)NC(=O)CSC[C@@H](C(N)=O)NC(=O)[C@H](CC(=O)O)NC(=O)[C@H](Cc2cccc(-c3ccccc3)c2)NC(=O)[C@H](Cc2c[nH]c3ccccc23)NC(=O)[C@H](CC2CCC2)NC(=O)[C@H](CC(=O)O)NC(=O)[C@H](CO)NC(=O)[C@H](CC(=O)O)NC1=O [Compound P-21] ({CH2CO}-W[Phe(3-Ph)]DVDSD[Cba]W[Phe(3-Ph)]DC-NH2; thioether N-12)
Kd [2]: < 10 nM

Compound: CC[C@H](C)[C@@H]1NC(=O)[C@H](Cc2cccnc2)NC(=O)[C@@H](Cc2ccccc2)NC(=O)CSC[C@@H](C(N)=O)NC(=O)[C@H]([C@@H](C)CC)NC(=O)[C@H]([C@@H](C)CC)NC(=O)[C@H](Cc2ccccc2)NC(=O)[C@H](Cc2ccc(O)cc2)N(C)C(=O)[C@H](CC(=O)O)NC(=O)[C@H](CO)NC(=O)[C@H](C)N(C)C(=O)[C@H](C)N(C)C(=O)[C@H](Cc2cccnc2)NC(=O)[C@H](CC(C)C)NC1=O [Compound P-30] ({CH2CO}-[dF][3Pal]IL[3Pal][NMeA][NMeA]SD[NMeY]FIIC-NH2; thioether N-14)
fraction unbound ([3]; plasma): 0.1 to 0.3

Further lines, results first:

Kd [1]: < 10 nM
Compound: C[C@@H](O)[C@@H]1NC(=O)[C@H](CC(=O)O)NC(=O)[C@H](Cc2cccc(Cl)c2)NC(=O)[C@H](CC(=O)O)NC(=O)[C@H](Cc2ccccc2)N(C)C(=O)[C@H](C2CCCCC2)NC(=O)[C@H](CCCNC(=N)N)NC(=O)[C@H](CC(=O)O)NC(=O)CSC[C@@H](C(N)=O)NC(=O)[C@H](Cc2ccc(O)cc2)NC(=O)[C@H](Cc2c[nH]c3ccccc23)NC(=O)[C@H](Cc2ccc(O)cc2)N(C)C(=O)[C@H](Cc2ccc(O)cc2)N(C)C1=O [Compound P-11] ({CH2CO}-DR[Chg][NMeF]D[Phe(3-Cl)]DT[NMeY][NMeY]WYC-NH2; thioether N-13)

Kd [1]: < 10 nM
Compound: CC(C)C[C@@H]1NC(=O)[C@H](CCCNC(=N)N)NC(=O)[C@H](C)NC(=O)CSC[C@@H](C(N)=O)NC(=O)[C@H](Cc2ccc(O)cc2)NC(=O)[C@H](Cc2c[nH]c3ccccc23)NC(=O)[C@H](Cc2ccc(O)cc2)N(C)C(=O)[C@H](Cc2ccc(O)cc2)N(C)C(=O)[C@H]([C@@H](C)O)NC(=O)[C@H](CC(=O)O)NC(=O)[C@H](Cc2ccc(O)cc2)NC(=O)[C@H](CC(=O)O)NC(=O)[C@H](Cc2ccccc2)N(C)C1=O [Compound P-10] ({CH2CO}-ARL[NMeF]DYDT[NMeY][NMeY]WYC-NH2; thioether N-13)

fraction unbound [3]: 0.1 to 0.3
Compound: CCCCC[C@@H]1NC(=O)CN(C)C(=O)[C@H](C(C)C)NC(=O)[C@H](Cc2c[nH]c3cc(Cl)ccc23)NC(=O)CNC(=O)[C@H]([C@@H](C)O)NC(=O)[C@H](Cc2ccccc2)N(C)C(=O)CNC(=O)[C@H](CCCNC(=N)N)NC(=O)[C@H](Cc2ccc(O)cc2)NC(=O)[C@H](Cc2cccc(Cl)c2)NC(=O)[C@H](C(C)C)NC(=O)[C@H](C)NC(=O)CSC[C@@H](C(N)=O)NC1=O [Compound P-31] ({CH2CO}-AV[Phe(3-Cl)]YRG[NMeF]TG[Trp(6-Cl)]V[Sar][Ahp(2)]C-NH2; thioether N-14)

EC50 [4]: 100 to 1000 nM
Compound: P-22 ([NMeF]DDSVWD[hPhe]YC-NH2; bridge N-10; not fully specified (N-terminus, bridges)) [Compound P-22]

Kd [5]: 10 to 1000 nM
Compound: C-40: "Conjugate C-40 contains a monocyclic peptide P-40 of Table 3"; made from peptide-3 and DOTA-OSu ([dA]D[Bip]IYPA[Bip]SSES[NMeF]C[βAla][dK](PEG‑DOTA)[γGlu][γGlu]-NH2; bridge N-14; not fully specified (bridges)) [Compound C-40]
